Experimental data reported in article PMC6865181, “Role of L-Type Amino Acid Transporter 1 (LAT1) for the Selective Cytotoxicity of Sesamol in Human Melanoma Cells” (Molecules, 2019).
Marks after values point to notes of the source that are not given here.

Tests used:
LAT1 [1] = conditions: Vero cells, sesamol 0.1 mM, 10 min; for Percent Inhibition of Sesamol Distribution Volume: competitor at the concentration (BCH, L-tyrosine, L-dopa 1 mM; L-leucine, L-alanine 2 mM; melphalan 0.05 mM); for Sesamol Distribution Volume in presence of the compound: competitor at the concentration printed in the row
Description: (§1) SK-MEL-2 and Vero cells were seeded separately into 24-well plates at 2 × 10^5 cells/well for 24 h. The media was removed, and the cells pre-incubated with HBSS pH 7.4 for 10 min. The cells were used for the following experiments.
(§2) Competitive inhibition of uptake of sesamol was done in both SK-MEL-2 and the Vero cells. […] The cells were washed twice with ice-cold PBS, solubilized in methanol, and centrifuged at 2400× g, at 4 °C for 20 min. The precipitated protein was re-solubilized by 0.1 M NaOH prior to protein determination. The sesamol content was quantified using HPLC assay. The cellular uptake of sesamol was calculated as per the C/M ratio.
(§3) Quantitative analysis of sesamol and L-dopa were performed using a Shimadzu HPLC (LC-2030C-3D) with a UV photodiode array detector (DAD) (Kyoto, Japan). The analysis was based on a BDS Hypersil C-18 column, (4.6 × 250 mm, 5 µm packing, Thermo Fisher Scientific, Waltham, MA, USA). The column temperature was set at 30 °C with a flow rate of 0.8 mL/min. The mobile phase for sesamol quantification was 70% methanol in water, vs. 20% methanol in water for L-dopa. The respective detection wavelength and elution time for sesamol and L-dopa was 297 nm and 280 nm and 4.2 and 4.5 min. The validated sesamol quantification conducted using sesamol spiked cell lysate with high selectivity and clear separation from the endogenous cell lysate as previously reported. The % bias and % precision was determined within and between days, each was maintained below 6%.

Vero cells = experiment: Antiproliferative effect, neutral red uptake assay, Vero cells; format: cell-based, African green monkey
Description: (§4) The SK-MEL-2 and Vero cells (at 5 × 10^4 cells/well) were seeded separately into 96-well plates. After the cells were exposed to the tested compounds (200 µL) for 24 h, neutral red (50 µg/mL) (Sigma-Aldrich, St. Louis, MO, USA) was incorporated into the cells for 2 h. The cells were then washed with ice-cold PBS and lysed using 0.33% HCl in isopropanol. The absorbances of neutral red were measured at 540 nm with a reference wavelength of 660 nm using a UV-microplate reader (Perkin Elmer, Waltham, MA, USA). […] The selective index was calculated from the ratio of the IC50 of Vero and SK-MEL-2 cells.

LAT1 [2] = biological target: T1, LAT1 (Homo sapiens, UniProt Q01650); experiment: LAT1 function: competitive uptake of L-dopa in SK-MEL-2 cells; format: cell-based; conditions: for Percent Inhibition of L-Dopa Distribution Volume: competitor (BCH, L-tyrosine, sesamol 1 mM; L-leucine, L-alanine 2 mM; melphalan 0.05 mM); for L-Dopa Distribution Volume in presence of the compound: competitor at the concentration printed in the row
Description: as §1
(§5) Sesamol was also investigated for its affinity to LAT1. […] Competitive uptake was performed for 10 min then the cells were washed twice with ice-cold PBS. The L-dopa was solubilized by 0.1 M HCl and the cell lysate (25 µL) was pipetted for protein determination. […] Intracellular and extracellular L-dopa was quantified by the HPLC assay. The L-dopa uptake was represented as the distribution volume of L-dopa in a cell to media ratio (C/M ratio) as calculated in Section 4.3.1.
as §3, with “The” for “Quantitative analysis of sesamol and L-dopa were performed using a Shimadzu HPLC (LC-2030C-3D) with a UV photodiode array detector (DAD) (Kyoto, Japan). The”, “The respective detection wavelength and elution time for sesamol and L-dopa was 297 nm and 280 nm and 4.2 and 4.5 min.” left out

SK-MEL-2 cells = experiment: Antiproliferative effect, neutral red uptake assay, SK-MEL-2 cells; format: cell-based, human
Description: as §4

LAT1 [3] = biological target: T1, LAT1; experiment: cell-based; conditions: for Percent Inhibition of Sesamol Distribution Volume / Sesamol Distribution Volume in presence of the compound: SK-MEL-2, sesamol 0.1 mM, 10 min; for Percent Inhibition of Sesamol Distribution Volume: competitor at the concentration (BCH, L-tyrosine, L-dopa 1 mM; L-leucine, L-alanine 2 mM; melphalan 0.05 mM); for Sesamol Distribution Volume in presence of the compound: competitor at the concentration printed in the row
Description: as §1, §2, §3

LAT1 [4] = experiment: LAT1 function: competitive uptake of L-dopa in Vero cells; format: cell-based, African green monkey; conditions: L-dopa 0.1 mM, 10 min; for Percent Inhibition of L-Dopa Distribution Volume: competitor (BCH, L-tyrosine, sesamol 1 mM; L-leucine, L-alanine 2 mM; melphalan 0.05 mM); for L-Dopa Distribution Volume in presence of the compound: competitor at the concentration printed in the row
Description: as §1, §5, §3

[5] = SK-MEL-2, L-dopa 0.1 mM, 10 min
[6] = SK-MEL-2, read-out: Percent Inhibition of L-Dopa Distribution Volume
[7] = SK-MEL-2, read-out: Percent Inhibition of Sesamol Distribution Volume

T1 sequence (Q01650 whole entry): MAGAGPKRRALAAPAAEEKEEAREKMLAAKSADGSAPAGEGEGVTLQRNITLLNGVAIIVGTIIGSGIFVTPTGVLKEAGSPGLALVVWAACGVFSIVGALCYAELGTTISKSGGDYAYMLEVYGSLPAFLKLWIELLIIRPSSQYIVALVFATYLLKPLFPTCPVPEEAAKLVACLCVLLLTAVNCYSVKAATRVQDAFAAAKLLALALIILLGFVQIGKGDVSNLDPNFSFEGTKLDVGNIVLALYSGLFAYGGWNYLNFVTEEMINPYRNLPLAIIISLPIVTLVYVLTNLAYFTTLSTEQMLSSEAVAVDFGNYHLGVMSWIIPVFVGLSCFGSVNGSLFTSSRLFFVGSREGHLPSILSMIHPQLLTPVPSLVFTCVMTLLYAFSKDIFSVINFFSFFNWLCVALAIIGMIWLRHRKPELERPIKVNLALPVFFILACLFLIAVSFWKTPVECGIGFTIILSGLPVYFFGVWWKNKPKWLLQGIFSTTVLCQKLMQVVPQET
T1 sequence (P08195 102-630 partner): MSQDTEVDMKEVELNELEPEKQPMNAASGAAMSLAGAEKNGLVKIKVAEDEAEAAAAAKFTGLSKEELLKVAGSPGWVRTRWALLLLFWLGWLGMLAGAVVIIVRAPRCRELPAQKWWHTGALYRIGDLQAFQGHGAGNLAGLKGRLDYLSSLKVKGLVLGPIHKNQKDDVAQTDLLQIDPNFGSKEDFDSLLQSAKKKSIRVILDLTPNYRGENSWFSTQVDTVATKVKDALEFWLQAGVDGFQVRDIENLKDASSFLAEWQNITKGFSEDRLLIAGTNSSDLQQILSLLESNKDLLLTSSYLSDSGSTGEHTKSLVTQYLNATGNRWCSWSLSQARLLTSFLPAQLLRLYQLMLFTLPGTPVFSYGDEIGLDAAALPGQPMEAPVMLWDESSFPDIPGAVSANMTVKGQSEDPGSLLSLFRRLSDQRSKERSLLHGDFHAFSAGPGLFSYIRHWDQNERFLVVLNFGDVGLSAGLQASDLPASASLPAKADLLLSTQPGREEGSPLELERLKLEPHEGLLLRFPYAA

Row | Percent Inhibition of L-Dopa Distribution Volume (LAT1 [2]; [5]) [%] | Percent Inhibition of Sesamol Distribution Volume (LAT1 [3]) [%] | Compound | Percent Inhibition of Sesamol Distribution Volume (LAT1 [1]) | Sesamol Distribution Volume in presence of the compound (LAT1 [1]) [µL/mg Protein] | cytotoxicity compared to untreated cells (Vero cells; Vero cells, BCH 1 mM) | L-Dopa Distribution Volume in presence of the compound (LAT1 [2]; [5]) [µL/mg Protein] | cytotoxicity compared to untreated cells (SK-MEL-2 cells; SK-MEL-2 cells, BCH 1 mM) | Sesamol Distribution Volume in presence of the compound (LAT1 [3]) [µL/mg Protein] | Percent Inhibition of L-Dopa Distribution Volume (LAT1 [4]) [%] | L-Dopa Distribution Volume in presence of the compound (LAT1 [4]) [µL/mg Protein] | inhibition at 2000 µM (LAT1 [2]; [6]) [%] | inhibition at 2000 µM (LAT1 [3]; [7]) [%] | L-Dopa Distribution Volume, control (no competitor) (LAT1 [2]; SK-MEL-2, L-dopa 0.1 mM, 10 min, 37 °C) | inhibition at 1000 µM (LAT1 [3]; [7]) [%] | L-Dopa Distribution Volume, control (no competitor) (LAT1 [4]; 37 °C) | IC50 (Vero cells; Chlorocebus sabaeus, Vero, 24 h, read-out: IC50 (cell viability)) [µM] | inhibition at 50 µM (LAT1 [2]; [6]) [%] | IC50 (SK-MEL-2 cells; Homo sapiens, SK-MEL-2, 24 h, read-out: IC50 (cell viability)) [µM] | Selective Index (SK-MEL-2 cells; ratio of the IC50 of Vero and SK-MEL-2 cells) | inhibition at 50 µM (LAT1 [3]; [7]) [%]
1 | 82 | 55 | NC1(C(=O)O)CC2CCC1C2 (stereo not drawn) [BCH, 2-Amino-2-norbornanecarboxylic acid] | 42% | 10.4 ± 1.9 | no cytotoxicity | 67.3 ± 14.0 | no cytotoxicity | 10.3 ± 0.9 | 69 | 47.9 ± 3.7 |  |  |  |  |  |  |  |  |  | 
2 |  |  | C[C@H](N)C(=O)O [L-Alanine, L-alanine] | 25% | 13.3 ± 2.0 |  | 121.2 ± 3.6 |  | 13.1 ± 0.3 | 35 | 101.3 ± 4.0 | 67 | 44 |  |  |  |  |  |  |  | 
3 |  |  | N[C@@H](Cc1ccc(O)c(O)c1)C(=O)O [L-Dopa, L-dopa] | 40% (10.8 ± 2.0)^b,c |  |  |  |  | 7.4 ± 0.8 |  |  |  |  | 0% (370.6 ± 13.0)^a µL/mg Protein | 68 | 0% (155.6 ± 17.8)^a µL/mg Protein |  |  |  |  | 
4 | 72 | 75 | N[C@@H](Cc1ccc(O)cc1)C(=O)O [L-tyrosine] | 41% |  |  |  |  | 5.8 ± 0.2 | 69 | 48.7 ± 11.0 |  |  |  |  |  |  |  |  |  | 
5 |  |  | N[C@@H](Cc1ccc(N(CCCl)CCCl)cc1)C(=O)O [Melphalan, melphalan] | 35% | 11.7 ± 0.7 |  | 196.6 ± 20.3 |  | 9.4 ± 0.7 | 39 | 95.5 ± 11.2 |  |  |  |  |  | 600 ± 300 | 47 | 100 | 6.0 | 60

Row | Compound | Percent Inhibition of L-Dopa Distribution Volume (LAT1 [2]; [5]) [%] | Percent Inhibition of Sesamol Distribution Volume (LAT1 [3]) [%] | Percent Inhibition of Sesamol Distribution Volume (LAT1 [1]) | Sesamol Distribution Volume in presence of the compound (LAT1 [1]) [µL/mg Protein] | cytotoxicity compared to untreated cells (Vero cells; Vero cells, BCH 1 mM) | L-Dopa Distribution Volume in presence of the compound (LAT1 [2]; [5]) [µL/mg Protein] | cytotoxicity compared to untreated cells (SK-MEL-2 cells; SK-MEL-2 cells, BCH 1 mM) | Sesamol Distribution Volume in presence of the compound (LAT1 [3]) [µL/mg Protein] | Percent Inhibition of L-Dopa Distribution Volume (LAT1 [4]) [%] | L-Dopa Distribution Volume in presence of the compound (LAT1 [4]) [µL/mg Protein] | inhibition at 2000 µM (LAT1 [2]; [6]) [%] | inhibition at 2000 µM (LAT1 [3]; [7]) [%] | L-Dopa Distribution Volume, control (no competitor) (LAT1 [2]; SK-MEL-2, L-dopa 0.1 mM, 10 min, 37 °C) | inhibition at 1000 µM (LAT1 [3]; [7]) [%] | L-Dopa Distribution Volume, control (no competitor) (LAT1 [4]; 37 °C) | IC50 (Vero cells; Chlorocebus sabaeus, Vero, 24 h, read-out: IC50 (cell viability)) [µM] | inhibition at 50 µM (LAT1 [2]; [6]) [%] | IC50 (SK-MEL-2 cells; Homo sapiens, SK-MEL-2, 24 h, read-out: IC50 (cell viability)) [µM] | Selective Index (SK-MEL-2 cells; ratio of the IC50 of Vero and SK-MEL-2 cells) | inhibition at 50 µM (LAT1 [3]; [7]) [%]
6 | CC(C)C[C@H](N)C(=O)O [L-leucine, L-Leucine] | 75 | 50 | 23% | 13.8 ± 1.4 |  | 94.1 ± 13.5 |  | 11.7 ± 0.7 | 75 | 39.1 ± 2.3 |  |  |  |  |  |  |  |  |  | 
